Measured values published in patent US10508103B2, “Benzimidazole-linked indole compound acting as novel divalent IAP antagonist” (MEDSHINE DISCOVERY INC., priority 2016, dated 2019).

Legend:
cIAP1-BIR3 Protein = cIAP1-BIR3 Protein (Homo sapiens (Human), UniProt Q13490); experiment: Fluorescence polarization affinity of compounds to cIAP1-BIR3; format: binding; conditions: cIAP1-BIR3 20 nM; 5 nM ARPFAQ-K(5-FAM)-NH2 probe; FP; pH 7.5; read-out: affinity to target protein in vitro, cIAP1-BIR3 Protein (IC50)
Description: (§1) Biological Assay 1: affinity of compounds to cIAP1-BIR3, cIAP2-BIR3, XIAP-BIR3 • 1) Affinity of compounds listed in table to cIAP1-BIR3, Ciap2-BIR3, XIAP-BIR3 was tested referring to Nikolovska-Colesks, Z. et.Al. (Analytical Biochemistry,2004,232:261-273) to obtain IC50 value. Generally speaking, in 10-dose IC50 mode, IAP antagonists with different concentrations were diluted in series by 3-fold and fluorescence labelled ARPFAQ-K (5-FAM)-NH2 peptide was used as probe to test compounds binding to protein BIR3 domain. • 2) Test condition: cIAP1-BIR3: 20 nM; cIAP2-BIR3: 60 nM; XIAP-BIR3: 30 nM; 5 nM probe in 100 mM tripotassium phosphate, pH 7.5, 0.1 mg/mL BSA, 0.005% Triton X100 and 0.5% DMSO. • 3) Test procedure: compounds were added into protein with different concentrations by using ECHO (LabCyte), and then the mixture was preincubated for 15 min. The probe was added and the final concentration was 5 nM. After incubating for 60 min, FP was tested and mP was calculated. Experiment results were list in table 1.

[1] = test system: NF-κB Luciferase Reporter Hela cells; experiment: TNF-α inducing NF-κB reporter; format: cell-based; conditions: Homo sapiens, 6 h, Table 3, 20 ng/mL TNF-α, Bright-Glo luciferase, values given as ranges
Description: Biological Assay 2: TNF-α inducing NF-κB reporter
• 1) tested compounds were added into DMSO to give parent liquor (10 mM); • 2) reference compound Birinapant (32 μL, 10 mM) was added into DMSO (128 μL) to give a solution (2 mM); • 3) 0.5 μL reference compound Birinapant (2 mM) and tested compounds (10 mM) were taken by Echo and added into Greiner 96 well black cell culture plate respectively. The initial concentration of the reference compound and tested compound was 10 μM and 50 μM, respectively. Then, the reference compound and tested compounds were diluted at 9 points in series by 5-fold; and every plate was repeated for 3 times. • 4) the reference compound WXFL2012A001 (Birinapant) (final concentration: 10 μM) as HPE and DMSO (final concentration: 0.5%) as ZPE.
• 5) purpose of the three repeated plates: the first plate was used for testing compounds' activity;
the second plate was used for testing cytotoxicity of the compounds; the third plate was used for solution replacement of the first and second plates: mixing inducer TNF-α and medium containing 0.1% FBS, and then being added to the third plate and the resultant mixture was transferred to the first plate where supernatants had been removed.
• 1) removing medium in NF-iBLuciferase Reporter Hela cell culture flask and washing cell once with PBS (10 mL) • 2) adding 0.25% pancreatin (3 mL) to T150 cell culture flask, and placinginto cell incubator (37° C., 5%CO2) and dissociating cell for 3 min, and then medium (10 mL) was added to end dissociation and blowing cells with electric pipette until cells were dispersed into single cell. • 3) Calculating cell density with cell counter Countstar • 4) Adjusting NF-κB Luciferase Reporter Hela density with medium to 2.0×10^5 cells/mL • 5) Adding cells to two Greiner 96 well black cell culture plates containing compounds, (100 μL per well (2.0×10^4 cells/well)), one plate was used for testing compounds' activity, another was used for testing cytotoxicity of the compounds. • 6) Placing cell culture plates into cell incubator (37° C., 5%CO2) and incubatingfor 24 h Second Day TNF-α Inducing • 1) TNF-α (100 μg/mL) was diluted into 20 ng/mL with 0.1% FBS medium and transferredto the third plate with 100 μL per well • 2) Removing medium of the first 96 well black cell culture plate (compound activity testing plate) after 24 h, replacing with fresh medium containing the compound and 20 ng/mL TNF-α in the third plate • 3) Placing cell culture plate into cell incubator (37° C., 5% CO2) and incubatingfor 6 h • 4) after 6 h, compound's activity in the first plate was tested according to Bright-Glo (Promega) manual method, luciferase signal in each well was tested by Envision plate reader • 5) compound's cytotoxicity in the second plate was tested according to ATPlite 1Step (Perkin Elmer) manual method, luciferase signal in each well was tested by Envision plate reader • 6) analyzing with software to obtain EC50 of compound.

XIAP-BIR3 Protein = XIAP-BIR3 Protein (Homo sapiens (Human), UniProt P98170); experiment: Fluorescence polarization affinity of compounds to XIAP-BIR3; format: binding; conditions: XIAP-BIR3 30 nM; 5 nM ARPFAQ-K(5-FAM)-NH2 probe; FP; pH 7.5; read-out: affinity to target protein in vitro, XIAP-BIR3 Protein (IC50)
Description: as §1

cIAP2-BIR3 Protein = cIAP2-BIR3 Protein (Homo sapiens (Human), UniProt Q13489); experiment: Fluorescence polarization affinity of compounds to cIAP2-BIR3; format: binding; conditions: cIAP2-BIR3 60 nM; 5 nM ARPFAQ-K(5-FAM)-NH2 probe; FP; pH 7.5; read-out: affinity to target protein in vitro, cIAP2-BIR3 Protein (IC50)
Description: as §1

Chain of cIAP2-BIR3 Protein (Q13489 238-349): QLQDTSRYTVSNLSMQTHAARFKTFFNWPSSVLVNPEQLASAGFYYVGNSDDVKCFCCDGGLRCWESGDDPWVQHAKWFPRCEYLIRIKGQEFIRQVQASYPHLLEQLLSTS
Chain of cIAP1-BIR3 Protein (Q13490 253-363): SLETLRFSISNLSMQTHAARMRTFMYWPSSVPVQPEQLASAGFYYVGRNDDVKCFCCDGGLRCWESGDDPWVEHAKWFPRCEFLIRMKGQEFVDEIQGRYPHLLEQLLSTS
Chain of XIAP-BIR3 Protein (P98170 241-356): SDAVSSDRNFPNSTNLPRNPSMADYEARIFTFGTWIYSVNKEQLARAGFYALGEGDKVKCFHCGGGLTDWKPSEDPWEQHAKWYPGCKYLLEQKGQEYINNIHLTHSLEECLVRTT

Row | Compound | IC50 (cIAP1-BIR3 Protein) [nM] | EC50 [1] [nM] | IC50 (XIAP-BIR3 Protein) [nM] | IC50 (cIAP2-BIR3 Protein) [nM]
1 | CCC[C@H](NC(=O)[C@H](C)NC)C(=O)N1C[C@@H](F)C[C@H]1Cn1c(-c2[nH]c3cc(F)ccc3c2C[C@@H]2C[C@H](F)CN2C(=O)[C@@H](NC(=O)[C@H](C)NC)C2CCCCC2)nc2cc(F)ccc21 [Embodiment 36] | < 10 | < 10 | 10 to 100 | 10 to 100
2 | CC[C@H](NC(=O)[C@H](C)NC)C(=O)N1CCC[C@H]1Cc1c(-c2nc3cc(F)ccc3n2C[C@@H]2C[C@H](F)CN2C(=O)[C@@H](NC(=O)[C@H](C)NC)C(C)(C)C)[nH]c2cc(F)ccc12 [Embodiment 38] | < 10 | < 10 | < 10 | 10 to 100
3 | CC[C@H](NC(=O)[C@H](C)NC)C(=O)N1C[C@@H](F)C[C@H]1Cc1c(-c2nc3cc(F)ccc3n2C[C@@H]2CCCN2C(=O)[C@@H](NC(=O)[C@H](C)NC)C(C)C)[nH]c2cc(F)ccc12 [Embodiment 39] | < 10 | 10 to 100 | < 10 | 10 to 100
4 | CN[C@@H](C)C(=O)N[C@H](C(=O)N1CC(F)(F)C[C@H]1Cc1c(-c2nc3cc(F)ccc3n2C[C@@H]2CC(F)(F)CN2C(=O)[C@@H](NC(=O)[C@H](C)NC)C2CC2)[nH]c2cc(F)ccc12)C1CC1 [Embodiment 44] | < 10 | > 100 | < 10 | 10 to 100
5 | CC[C@H](NC(=O)[C@H](C)NC)C(=O)N1CC(F)(F)C[C@H]1Cc1c(-c2nc3cc(F)ccc3n2C[C@@H]2CC(F)(F)CN2C(=O)[C@@H](NC(=O)[C@H](C)NC)C(C)C)[nH]c2cc(F)ccc12 [Embodiment 46] | < 10 | 10 to 100 | 10 to 100 | 10 to 100

Further lines, results first:

Row | IC50 (cIAP1-BIR3 Protein) [nM] | EC50 [1] [nM] | IC50 (XIAP-BIR3 Protein) [nM] | IC50 (cIAP2-BIR3 Protein) [nM] | Compound
6 | < 10 | < 10 | 10 to 100 | 10 to 100 | CC[C@H](NC(=O)[C@H](C)NC)C(=O)N1C[C@@H](F)C[C@H]1Cc1c(-c2nc3cc(F)ccc3n2C[C@@H]2CCCN2C(=O)[C@@H](NC(=O)[C@H](C)NC)C(C)(C)C)[nH]c2cc(F)ccc12 [Embodiment 40]
7 | < 10 | 10 to 100 | < 10 | 10 to 100 | CC[C@H](NC(=O)[C@H](C)NC)C(=O)N1CCC[C@H]1Cn1c(-c2[nH]c3cc(F)ccc3c2C[C@@H]2C[C@H](F)CN2C(=O)[C@@H](NC(=O)[C@H](C)NC)C(C)(C)C)nc2cc(F)ccc21 [Embodiment 42]
8 | 10 to 100 | > 100 | 10 to 100 | 10 to 100 | CC[C@H](NC(=O)[C@H](C)NC)C(=O)N1CC(F)(F)C[C@H]1Cc1c(-c2nc3cc(F)ccc3n2C[C@@H]2CC(F)(F)CN2C(=O)[C@H](CC)NC(=O)[C@H](C)NC)[nH]c2cc(F)ccc12 [Embodiment 43]
